# Test results taken from patent US8217051B2, “Spiroindolinone derivatives” (Hoffmann-La Roche Inc., priority 2009, dated 2012).
# Biological target: interaction between p53 and MDM2 proteins (Homo sapiens, UniProt Q00987)
# Test: HTRF assay of inhibition of p53-MDM2 interaction (GST-MDM2 / biotinylated p53 peptide)
# Type: binding
# Conditions: 0.02% BSA
# Description: The ability of the compounds to inhibit the interaction between p53 and MDM2 proteins was measured by an HTRF (homogeneous time-resolved fluorescence) assay in which recombinant GST-tagged MDM2 binds to a peptide that resembles the MDM2-interacting region of p53 (Lane et al.). Binding of GST-MDM2 protein and p53-peptide (biotinylated on its N-terminal end) is registered by the FRET (fluorescence resonance energy transfer) between Europium (Eu)-labeled anti-GST antibody and streptavidin-conjugated Allophycocyanin (APC).
# Test is performed in black flat-bottom 384-well plates (Costar) in a total volume of […] containing:90 nM biotinylate peptide, 160 ng/ml GST-MDM2, 20 nM streptavidin-APC (PerkinElmerWallac), 2 nM Eu-labeled anti-GST-antibody (PerkinElmerWallac), 0.2% bovine serum albumin (BSA), 1 mM dithiothreitol (DTT) and 20 mM […] (TBS) buffer as follows: Add 10 uL of GST-MDM2 (640 ng/ml working solution) in reaction buffer to each well. Add 10 uL diluted compounds (1:5 dilution in reaction buffer) to each well, mix by shaking. Add 20 uL biotinylated p53 peptide (180 nM working solution) in reaction buffer to each well and mix on shaker. Incubate at 37° C. for 1 h. Add 20 uL streptavidin-APC and Eu-anti-GST antibody mixture (6 nM Eu-anti-GST and 60 nM streptavidin-APC working solution) in TBS buffer with 0.2% BSA, shake at room temperature for 30 minutes and read using a TRF-capable plate reader at 665 and 615 nm (Victor 5, Perkin ElmerWallac). If not specified, the reagents were purchased from Sigma Chemical Co.
# interaction between p53 and MDM2 proteins, sequence (Q00987 whole entry): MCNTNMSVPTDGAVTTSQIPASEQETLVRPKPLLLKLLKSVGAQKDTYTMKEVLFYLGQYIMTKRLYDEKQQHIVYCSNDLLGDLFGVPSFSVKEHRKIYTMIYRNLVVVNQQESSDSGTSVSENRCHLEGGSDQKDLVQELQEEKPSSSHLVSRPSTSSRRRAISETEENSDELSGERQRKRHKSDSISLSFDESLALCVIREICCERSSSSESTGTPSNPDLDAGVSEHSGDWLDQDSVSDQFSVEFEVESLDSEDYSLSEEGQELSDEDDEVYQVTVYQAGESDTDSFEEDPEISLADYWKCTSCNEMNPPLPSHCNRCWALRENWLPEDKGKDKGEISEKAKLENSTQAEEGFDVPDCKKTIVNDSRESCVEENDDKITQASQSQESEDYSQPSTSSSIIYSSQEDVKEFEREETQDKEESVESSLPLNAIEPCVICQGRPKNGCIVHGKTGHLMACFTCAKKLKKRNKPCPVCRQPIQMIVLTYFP
row,IC50 [nM],SMILES
1,6420,"Cc1ccc(F)cc1[C@H]1NC(=O)C=C(c2cccnc2)[C@]12C(=O)Nc1cc(Cl)ccc12 (racemic) [Example 40, racemic(2′R,3R)-6-chloro-2′-(5-fluoro-2-methyl-phenyl)-4′-(pyridin-3-yl)-1′,3′-dihydrospiro[3H-indole-3,3′(2′H)-pyridine]-2,6′(1H)-dione]"
2,5300,"Cc1ccc(F)cc1[C@H]1NC(=O)C=C(c2ccoc2)[C@]12C(=O)Nc1cc(Cl)ccc12 (racemic) [Example 32, racemic(2′R,3R)-6-chloro-2′-(5-fluoro-2-methyl-phenyl)-4′-(furan-3-yl)-1′,3′-dihydrospiro[3H-indole-3,3′(2′H)-pyridine]-2,6′(1H)-dione]"
3,273,"O=C1C=C(c2cccc(Cl)c2)[C@]2(C(=O)Nc3cc(Cl)ccc32)[C@@H](c2cc(Cl)ccc2OC2CCOCC2)N1 (racemic) [Example 12, racemic(2′R,3R)-6-chloro-4′-(3-chloro-phenyl)-2′-[5-chloro-2-(tetrahydro-pyran-4-yloxy)-phenyl]-1′,3′-dihydrospiro[3H-indole-3,3′-pyridine]-2,6′(1H)-dione]"
4,66,"Cc1ccc(F)cc1[C@H]1NC(=O)C=C(c2cccc(Cl)c2)[C@]12C(=O)Nc1cc(Cl)ccc12 [Example 6, chiral(2′R,3R)-6-chloro-4′-(3-chloro-phenyl)-2′-(5-fluoro-2-methyl-phenyl)-1′,3′-dihydrospiro[3H-indole-3,3′(2′H)-pyridine]-2,6′(1H)-dione]"
5,482,"O=C1C=C(c2cccc(F)c2)[C@]2(C(=O)Nc3cc(Cl)ccc32)[C@@H](c2cc(Cl)ccc2OC2CCOCC2)N1 (racemic) [Example 16, racemic(2′R,3R)-6-chloro-2′-[5-chloro-2-(tetrahydro-pyran-4-yloxy)-phenyl]-4′-(3-fluoro-phenyl)-1′,3′-dihydrospiro[3H-indole-3,3′-pyridine]-2,6′(1H)-dione]"
